Source: PubChem BioAssay (NCI)
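Briefly, cells in 96-well plates were exposed to five compound concentrations for 48 h, and endpoints were estimated by linear interpolation. Abbreviation: GI50, concentration required for 50% inhibition of growth. TGI denotes the concentration required for complete inhibition of growth.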

Legend:
Assay in all cases: inhibition of tumour cell growth, NCI panel, 48 h
[1] = test system: HT29 colon
[2] = test system: K-562 leukemia
[3] = test system: SNB-75 CNS
[4] = test system: NCI-H226 lung
[5] = test system: MOLT-4 leukemia
[6] = test system: SF-295 CNS
[7] = test system: NCI-H460 lung
[8] = test system: KM12 colon
[9] = test system: HL-60(TB) leukemia
[10] = test system: TK-10 renal
[11] = test system: U251 CNS
[12] = test system: SR leukemia
[13] = test system: NCI-H522 lung
[14] = test system: HOP-62 NSCLC
[15] = test system: PC-3 prostate
[16] = test system: M14 melanoma
[17] = test system: NCI/ADR-RES ovarian
[18] = test system: MDA-MB-231 breast
[19] = test system: RPMI-8226 leukemia
[20] = test system: BT-549 breast
[21] = test system: MDA-MB-468 breast
[22] = test system: SF-539 CNS
[23] = test system: SK-MEL-2 melanoma
[24] = test system: SF-268 CNS
[25] = test system: UACC-257 melanoma
[26] = test system: CAKI-1 renal
[27] = test system: MDA-MB-435
[28] = test system: OVCAR-3 ovarian
[29] = test system: UACC-62 melanoma
[30] = test system: SK-OV-3 ovarian
[31] = test system: HOP-92 NSCLC
[32] = test system: HCC-2998 colon
[33] = test system: 786-0 renal
[34] = test system: SNB-19 CNS
[35] = test system: DU-145 prostate
[36] = test system: HCT-116 colon
[37] = test system: ACHN renal
[38] = test system: COLO 205 colon
[39] = test system: OVCAR-5 ovarian
[40] = test system: HCT-15 colon
[41] = test system: MCF7 breast
[42] = test system: HS 578T breast
[43] = test system: MALME-3M melanoma
[44] = test system: SN12C renal
[45] = test system: SW-620 colon
[46] = test system: A498 renal
[47] = test system: OVCAR-4 ovarian
[48] = test system: SK-MEL-28 melanoma
[49] = test system: NCI-H23 lung
[50] = test system: LOX IMVI melanoma
[51] = test system: CCRF-CEM leukemia
[52] = test system: OVCAR-8 ovarian
[53] = test system: A549 NSCLC
[54] = test system: EKVX NSCLC
[55] = test system: UO-31 renal
[56] = test system: SK-MEL-5 melanoma
[57] = test system: IGROV1 ovarian

In the case of `Cn1cc(-c2nc(N)nnc2-c2c[nH]c3ccccc23)c2cc(Br)cnc21`, the GI50 [1] was 34.7 nM, the TGI [1] was 1230 nM and the GI50 [2] was 35.7 nM. It also gave a TGI [2] of over 100 µM, a GI50 [3] of 30.2 nM and a TGI [3] of 18.3 µM. It also gave a GI50 [4] of 50.9 nM, a TGI [4] of 2700 nM and a GI50 [5] of 50.5 nM. For the same compound, the TGI [5] was 19.2 µM, the GI50 [6] was 29.4 nM and the TGI [6] was 1190 nM. For the same compound, the GI50 [7] was 46.2 nM, the TGI [7] was 1350 nM and the GI50 [8] was 50.6 nM. The TGI [8] was 13.9 µM, the GI50 [9] was 26.5 nM and the TGI [9] was 100 nM. For the same compound, the GI50 [10] was 5.95 µM, the TGI [10] was 34.2 µM and the GI50 [11] was 40.2 nM. It also gave a TGI [11] of 6.71 µM, a GI50 [12] of 30.9 nM and a TGI [12] of over 100 µM. It also gave a GI50 [13] of 12.5 nM, a TGI [13] of 79.7 nM and a GI50 [14] of 56.4 nM. The TGI [14] was 21.2 µM, the GI50 [15] was 56 nM and the TGI [15] was 47.9 µM. It also gave a GI50 [16] of 52.6 nM, a TGI [16] of 2060 nM and a GI50 [17] of 92.4 nM. The TGI [17] was 776 nM, the GI50 [18] was 69.7 nM and the TGI [18] was 11.7 µM. It also gave a GI50 [19] of 70.8 nM, a TGI [19] of over 45.5 µM and a GI50 [20] of 29 nM. For the same compound, the TGI [20] was 5.67 µM, the GI50 [21] was 20 nM and the TGI [21] was 51.8 nM. The GI50 [22] was 32.3 nM, the TGI [22] was 175 nM and the GI50 [23] was 40.9 nM. For the same compound, the TGI [23] was 14.3 µM, the GI50 [24] was 340 nM and the TGI [24] was 25.5 µM. For the same compound, the GI50 [25] was 42.1 nM, the TGI [25] was 21.8 µM and the GI50 [26] was 53.5 nM. For the same compound, the TGI [26] was 17.1 µM, the GI50 [27] was 16.7 nM and the TGI [27] was 52.5 nM. It also gave a GI50 [28] of 39 nM, a TGI [28] of 692 nM and a GI50 [29] of 29.4 nM. It also gave a TGI [29] of 7.68 µM, a GI50 [30] of 48.7 nM and a TGI [30] of 21.2 µM. For the same compound, the GI50 [31] was 3.89 µM, the TGI [31] was 25.5 µM and the GI50 [32] was 84.1 nM. It also gave a TGI [32] of 3.47 µM, a GI50 [33] of 53.7 nM and a TGI [33] of 15.6 µM. The GI50 [34] was 63.2 nM, the TGI [34] was 10.4 µM and the GI50 [35] was 87.7 nM. The TGI [35] was 22.4 µM, the GI50 [36] was 44.1 nM and the TGI [36] was 6.51 µM. For the same compound, the GI50 [37] was 74.3 nM, the TGI [37] was 16.9 µM and the GI50 [38] was 41.4 nM. The TGI [38] was 280 nM, the GI50 [39] was 72.9 nM and the TGI [39] was 15.5 µM. It also gave a GI50 [40] of 37.6 nM, a TGI [40] of 10.7 µM and a GI50 [41] of 27.5 nM. The TGI [41] was 10.6 µM, the GI50 [42] was 31.9 nM and the TGI [42] was 33.7 µM. For the same compound, the GI50 [43] was 46.6 nM, the TGI [43] was 18.5 µM and the GI50 [44] was 58.9 nM. For the same compound, the TGI [44] was 14.3 µM, the GI50 [45] was 37.6 nM and the TGI [45] was 13.2 µM. For the same compound, the GI50 [46] was 15.6 µM, the TGI [46] was 29.7 µM and the GI50 [47] was 2700 nM. The TGI [47] was 36.8 µM, the GI50 [48] was 364 nM and the TGI [48] was 19.2 µM. The GI50 [49] was 73.8 nM, the TGI [49] was 10.4 µM and the GI50 [50] was 43.5 nM. It also gave a TGI [50] of 15.8 µM, a GI50 [51] of 33.4 nM and a TGI [51] of over 35.5 µM. For the same compound, the GI50 [52] was 63.4 nM, the TGI [52] was 4.7 µM and the GI50 [53] was 62.5 nM. The TGI [53] was 19.3 µM, the GI50 [54] was 94.9 nM and the TGI [54] was 20.7 µM. It also gave a GI50 [55] of 71.1 nM, a TGI [55] of 15.2 µM and a GI50 [56] of 30.1 nM. The TGI [56] was 1190 nM, the GI50 [57] was 72.1 nM and the TGI [57] was 15.2 µM.
